Measurements taken from PMC11606603, “The membrane domains of mammalian adenylyl cyclases are lipid receptors” (eLife, 2024).
Values joined by “and” are separate entries in the source; they are usually repeats but may differ in a detail not shown here. Equal entries are not always repeated.

How the values were obtained:
mAC6 = target: T1, mAC6 (Homo sapiens, UniProt O43306); assay: AC assay, Gsα-stimulated mAC6 in membranes from transfected HEK293 cells; assay type: biochemical; conditions: for activity [%] (100% = 300nM Gsα stimulation): mAC6; for mAC6 activity [%] (100% = 300nM Gsα stimulation): 20µM fatty acid concentration
T1 construct: Human mAC genes were from GenScript and fitted with a C-terminal FLAG-tag; FLAG (C); made in house; host or cells: HEK293, permanently transfected; membrane preparation
T1 sequence (O43306 whole entry): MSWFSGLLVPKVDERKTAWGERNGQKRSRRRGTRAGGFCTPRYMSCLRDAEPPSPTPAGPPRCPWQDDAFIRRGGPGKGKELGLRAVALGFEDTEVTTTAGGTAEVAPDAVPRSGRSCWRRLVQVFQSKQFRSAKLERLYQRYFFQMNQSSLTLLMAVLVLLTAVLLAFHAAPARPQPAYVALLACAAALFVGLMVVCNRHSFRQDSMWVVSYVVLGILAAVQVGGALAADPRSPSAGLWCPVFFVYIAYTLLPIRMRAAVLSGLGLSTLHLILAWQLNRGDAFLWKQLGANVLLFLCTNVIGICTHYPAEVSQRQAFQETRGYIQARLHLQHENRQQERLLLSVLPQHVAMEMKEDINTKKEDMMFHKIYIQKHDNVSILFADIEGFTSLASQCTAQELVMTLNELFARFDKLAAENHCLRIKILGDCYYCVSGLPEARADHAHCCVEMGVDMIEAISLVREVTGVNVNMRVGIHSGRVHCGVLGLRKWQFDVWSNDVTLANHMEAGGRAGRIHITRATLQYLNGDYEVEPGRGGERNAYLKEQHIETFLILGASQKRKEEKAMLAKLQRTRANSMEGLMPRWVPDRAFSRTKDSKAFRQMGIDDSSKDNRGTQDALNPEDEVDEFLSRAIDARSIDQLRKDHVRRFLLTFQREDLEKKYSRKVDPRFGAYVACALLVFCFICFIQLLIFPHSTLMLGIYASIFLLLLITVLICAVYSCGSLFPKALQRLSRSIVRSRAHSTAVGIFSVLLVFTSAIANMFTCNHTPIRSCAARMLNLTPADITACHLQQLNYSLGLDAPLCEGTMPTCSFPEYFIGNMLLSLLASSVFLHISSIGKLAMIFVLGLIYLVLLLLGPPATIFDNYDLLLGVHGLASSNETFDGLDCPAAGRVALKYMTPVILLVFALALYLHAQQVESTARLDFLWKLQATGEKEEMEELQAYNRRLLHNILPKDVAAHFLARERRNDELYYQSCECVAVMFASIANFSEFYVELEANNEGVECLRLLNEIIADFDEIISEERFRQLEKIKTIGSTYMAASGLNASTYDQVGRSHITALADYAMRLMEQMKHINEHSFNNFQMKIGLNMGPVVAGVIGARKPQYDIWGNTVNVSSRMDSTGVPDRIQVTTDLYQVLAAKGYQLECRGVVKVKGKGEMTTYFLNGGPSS
In short: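 cAMP detected with a Cisbio kit, calibrated by a cAMP standard curve each run. Reaction: 1 mM ATP, 2 mM MgCl2, 3 mM creatine phosphate, 60 μg/ml creatine kinase, 50 mM MOPS pH 7.5. Enzyme source: membranes of stably transfected HEK293 (G418-selected) carrying FLAG-tagged human AC.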

[1] = target: T2, HEK293 cells permanently transfected with mAC3 (Homo sapiens, UniProt O60266); assay: cAMP accumulation assay, isoproterenol-stimulated HEK-mAC3 cells; assay type: cell-based; conditions: for Effect on isoproterenol-stimulated cAMP formation in HEK-mAC3: in words
T2 construct: Human mAC genes were from GenScript and fitted with a C-terminal FLAG-tag; FLAG (C); expressed in transfected cells; host or cells: HEK293, permanently transfected
T2 sequence (O60266 1-1144): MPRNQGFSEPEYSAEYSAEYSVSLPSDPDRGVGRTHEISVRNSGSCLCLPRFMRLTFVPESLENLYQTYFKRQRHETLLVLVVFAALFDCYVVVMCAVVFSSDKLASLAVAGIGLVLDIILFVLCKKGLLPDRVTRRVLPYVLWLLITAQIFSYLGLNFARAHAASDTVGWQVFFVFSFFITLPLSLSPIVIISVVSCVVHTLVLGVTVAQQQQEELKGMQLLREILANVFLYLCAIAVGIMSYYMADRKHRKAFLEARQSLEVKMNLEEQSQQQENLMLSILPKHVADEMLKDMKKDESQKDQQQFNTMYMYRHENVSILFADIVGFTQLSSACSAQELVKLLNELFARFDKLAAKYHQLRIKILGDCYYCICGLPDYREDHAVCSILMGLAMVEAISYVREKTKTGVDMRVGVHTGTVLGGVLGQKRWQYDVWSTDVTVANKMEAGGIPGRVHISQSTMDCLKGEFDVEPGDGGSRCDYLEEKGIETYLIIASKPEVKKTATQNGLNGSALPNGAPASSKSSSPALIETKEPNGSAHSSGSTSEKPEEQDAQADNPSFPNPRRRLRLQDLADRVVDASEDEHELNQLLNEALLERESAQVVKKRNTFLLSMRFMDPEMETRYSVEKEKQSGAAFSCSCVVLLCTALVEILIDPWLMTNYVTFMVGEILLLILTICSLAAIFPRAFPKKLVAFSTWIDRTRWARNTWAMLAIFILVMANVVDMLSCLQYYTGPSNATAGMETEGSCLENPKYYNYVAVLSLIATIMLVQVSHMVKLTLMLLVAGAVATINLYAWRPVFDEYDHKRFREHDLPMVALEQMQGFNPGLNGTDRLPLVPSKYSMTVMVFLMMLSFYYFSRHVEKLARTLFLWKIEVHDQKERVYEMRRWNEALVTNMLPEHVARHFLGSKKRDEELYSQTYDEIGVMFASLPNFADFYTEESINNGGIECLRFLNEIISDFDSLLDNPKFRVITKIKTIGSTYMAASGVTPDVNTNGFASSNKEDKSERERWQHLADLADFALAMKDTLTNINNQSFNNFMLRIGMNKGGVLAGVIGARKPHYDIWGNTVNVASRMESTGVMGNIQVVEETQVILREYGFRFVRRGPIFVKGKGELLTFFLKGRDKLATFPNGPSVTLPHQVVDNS
Method: hAC sequences were from NCBI were: ADCY1: NM_021116.3; ADCY2: NM_020546.2; ADCY3: NM_004036.4; ADCY4: NM_001198568.2; ADCY5: NM_183357.2; ADCY6: NM_015270.4; ADCY7: NM_001114.4; ADCY8: NM_001115.2; ADCY9: NM_001116.3. Human mAC genes were from GenScript and fitted with a C-terminal FLAG-tag. […] The gene was synthesized by GenScript. HEK293 cells were maintained in Dulbeccos Modified Eagle Medium (DMEM) with 10% fetal bovine serum at 37°C and 5% CO2. Transfection with AC plasmids was with PolyJet (SignaGen, Frederick, MD, USA). Permanent cell lines were generated by selection for 7 days with 600 µg/ml G418 and maintained with 300 µg/ml For membrane preparation, cells were tyrpsinized, collected by centrifugation (3000 × g, 5 min) and lysed and homogenized in 20 mM HEPES, pH 7.5, 1 mM Ethylenediaminetetraacetic acid (EDTA), 2 mM MgCl2, 1 mM Dithiothreitol (DTT), one tablet of cOmplete, EDTA-free (per 50 ml) and 250 mM sucrose by 20 strokes in a potter homogenizer on ice. Debris was removed (5 min at 1000 × g, 0°C), membranes were collected at 100,000 × g, 60 min at 0°C, suspended and stored at −80°C in 20 mM MOPS, pH 7.5, 0.5 mM EDTA, 2 mM MgCl2. […] Three cerebral cortices were dissected and homogenized in 4.5 ml cold 48 mM Tris–HCl, pH 7.4, 12 mM MgC1_2, and 0.1 mM Ethylene glycol-bis(β-aminoethyl ether)-N,N,N′,N′-tetraacetic acid (EGTA) with a Polytron hand disperser (Kinematica AG, Switzerland). […] The pellet was washed once with 5 ml 1 mM KHCO3. The final suspension in 2 ml 1 mM KHCO3 was stored in aliquots at −80°C.
HEK293 cells stably expressing mAC isoforms 3, 5, and mAC5(membr)_mAC3(cat) were plated at 2500–10,000 cells/well into 384-well plates. […] Addition of Cisbio HTRF detection reagents stopped the reaction and cAMP levels were determined.

CCCCC/C=C\C/C=C\C/C=C\C/C=C\CCCC(=O)NCCO [Anandamide, arachidonoylethanolamide]
IC50 (mAC6; attenuation of 300 nM Gsα-stimulated activity): 23 µM and 22 µM | activity [%] (100% = 300nM Gsα stimulation) (mAC6; Anandamide 0.1 µM): 100% | activity [%] (100% = 300nM Gsα stimulation) (mAC6; Anandamide 0.5 µM): 100% and 94% | activity [%] (100% = 300nM Gsα stimulation) (mAC6; Anandamide 1 µM): 89% | activity [%] (100% = 300nM Gsα stimulation) (mAC6; Anandamide 20 µM): 89% | activity [%] (100% = 300nM Gsα stimulation) (mAC6; Anandamide 30 µM): 60% and 59% and 57% and 63% and 40% | activity [%] (100% = 300nM Gsα stimulation) (mAC6; Anandamide 35 µM): 73% | activity [%] (100% = 300nM Gsα stimulation) (mAC6; Anandamide 100 µM): 26% | Effect on isoproterenol-stimulated cAMP formation in HEK-mAC3 [1]: no effect

CCCCCCCC/C=C\CCCCCCCC(=O)O [Oleic acid, Oleic ((9Z)-octadecenoic) acid]
mAC6 activity [%] (100% = 300nM Gsα stimulation) (mAC6): 92% and 80% and 133% | Effect of lipid on 300 nM Gsα-stimulated mAC6 (mAC6; 20 µM, in words): unaffected | mAC activity [%] (100% = 300nM Gsα stimulation); 20µM Oleic acid concentration, mAC6 (mAC6; Figure 5 A, 20 µM oleic acid, 300 nM Gsα): 92% and 80% and 133% | EC50 ([1]; 2.5 µM isoproterenol): 0.5 µM | enhancement of cAMP formation in HEK-mAC3 ([1]; 2.5 µM isoproterenol): 1.5 fold | AC activity (%); 100%= 2.5µM Isoproterenol stimulation ([1]; HEK-mAC3, oleic acid 0.01 µM): 132% | AC activity (%); 100%= 2.5µM Isoproterenol stimulation ([1]; HEK-mAC3, oleic acid 0.03 µM): 145% and 87% | AC activity (%); 100%= 2.5µM Isoproterenol stimulation ([1]; HEK-mAC3, oleic acid 0.06 µM): 118% and 89% | AC activity (%); 100%= 2.5µM Isoproterenol stimulation ([1]; HEK-mAC3, oleic acid 0.1 µM): 122% and 118% and 127% and 150% | AC activity (%); 100%= 2.5µM Isoproterenol stimulation ([1]; HEK-mAC3, oleic acid 0.3 µM): 130% and 163% | AC activity (%); 100%= 2.5µM Isoproterenol stimulation ([1]; HEK-mAC3, oleic acid 0.5 µM): 140% and 92% | AC activity (%); 100%= 2.5µM Isoproterenol stimulation ([1]; HEK-mAC3, oleic acid 0.6 µM): 135% and 121% and 113% and 161% | AC activity (%); 100%= 2.5µM Isoproterenol stimulation ([1]; HEK-mAC3, oleic acid 3 µM): 190% and 191% and 198% and 119% | AC activity (%); 100%= 2.5µM Isoproterenol stimulation ([1]; HEK-mAC3, oleic acid 10 µM): 199% and 123% and 137% and 198% and 118% and 119% | AC activity (%); 100%= 2.5µM Isoproterenol stimulation ([1]; HEK-mAC3, oleic acid 50 µM): 187% and 186% and 134%

CCCCCCCCCCCCCCCCCC(=O)O [Stearic acid, Stearic (octadecanoic) acid]
mAC6 activity [%] (100% = 300nM Gsα stimulation) (mAC6): 88% and 61% and 94% and 93% | Effect on isoproterenol-stimulated cAMP formation in HEK-mAC3 [1]: inactive
